The record followed here is PubChem BioAssay (NCI).

Among the test systems are RXF 393 renal; NCI/ADR-RES ovarian; ACHN renal; NCI-H226 lung; MALME-3M melanoma; HT29 colon; UACC-62 melanoma; TK-10 renal; UACC-257 melanoma; UO-31 renal; OVCAR-4 ovarian.
What all share (assay): NCI-60 cell line screen, 48 h

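Method: 48-hour compound exposure of cells in 96-well plates, five concentrations, linear interpolation of endpoints. TGI denotes the concentration required for complete inhibition of growth.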

Take `O=[N+]([O-])c1ccc2c(c1)c(OCc1ccccc1)nn2Cc1ccccc1`: the TGI with RXF 393 renal, in the experiment on NCI/ADR-RES ovarian, in the experiment with ACHN renal, in the experiment with NCI-H226 lung, in the experiment on MALME-3M melanoma and in the experiment on HT29 colon was greater than 100 µM in each case. Also, the TGI in the experiment with UACC-62 melanoma, in the experiment on TK-10 renal, with UACC-257 melanoma and in the experiment on UO-31 renal was greater than 100 µM throughout.

Turning to `COC(=O)c1ccccc1CC1Cc2ccc3c(c2C1=O)CCCC3` (stereo not given), the TGI in the experiment with NCI/ADR-RES ovarian is greater than 84.9 µM; with ACHN renal, greater than 100 µM; in the experiment with NCI-H226 lung it was greater than 100 µM; in the experiment with MALME-3M melanoma, greater than 82.5 µM; with HT29 colon, greater than 100 µM; in the experiment on UACC-62 melanoma, greater than 100 µM. The TGI with OVCAR-4 ovarian was greater than 79.4 µM; with TK-10 renal it was greater than 100 µM; with UACC-257 melanoma, greater than 100 µM; in the experiment with UO-31 renal, greater than 100 µM.

Take `COc1ccc(-c2c(C#N)c(-c3ccc(C)cc3)n(NS(=O)(=O)c3ccc(C)cc3)c(=O)c2C#N)cc1`: the TGI with RXF 393 renal, in the experiment on NCI/ADR-RES ovarian, in the experiment with ACHN renal, in the experiment with NCI-H226 lung, in the experiment on MALME-3M melanoma and in the experiment on HT29 colon was greater than 100 µM each time. Further, the TGI in the experiment with UACC-62 melanoma, with OVCAR-4 ovarian, in the experiment with TK-10 renal and in the experiment with UACC-257 melanoma was greater than 100 µM throughout.

For the compound `Cc1ccc(-c2n[nH]c(=O)n2N2C(=O)c3ccccc3C2=O)cc1`, the TGI with RXF 393 renal, in the experiment with NCI/ADR-RES ovarian, in the experiment with ACHN renal, in the experiment on NCI-H226 lung, in the experiment on MALME-3M melanoma and with HT29 colon was greater than 100 µM each time. The TGI in the experiment with UACC-62 melanoma, with TK-10 renal, in the experiment on UACC-257 melanoma and in the experiment with UO-31 renal was greater than 100 µM each time.

For `CCOC(=O)CSc1c(C(=O)OCC)c(=O)n(-c2ccccc2)c(=S)n1-c1ccccc1`, the TGI is 8.6 µM in the experiment with NCI/ADR-RES ovarian; greater than 100 µM in the experiment on ACHN renal; greater than 100 µM with NCI-H226 lung; greater than 100 µM in the experiment with MALME-3M melanoma; greater than 100 µM in the experiment with HT29 colon; greater than 100 µM in the experiment with UACC-62 melanoma. In addition, the TGI in the experiment with OVCAR-4 ovarian, in the experiment on TK-10 renal, with UACC-257 melanoma and with UO-31 renal was greater than 100 µM throughout.

For `Cc1cc(Cc2cc(C)c(N)cc2N)c(N)cc1N`, the TGI with RXF 393 renal, in the experiment with NCI/ADR-RES ovarian, in the experiment with ACHN renal, in the experiment on NCI-H226 lung, with HT29 colon and in the experiment with UACC-62 melanoma was greater than 100 µM in each case. For the same compound, the TGI in the experiment on OVCAR-4 ovarian, in the experiment on TK-10 renal, with UACC-257 melanoma and in the experiment with UO-31 renal was greater than 100 µM each time.

Take `Cc1ccc(Cl)c2[nH]c(-c3ccccc3)cc(=O)c12`: the TGI is greater than 100 µM in the experiment on RXF 393 renal; greater than 100 µM in the experiment on NCI/ADR-RES ovarian; 98.4 µM in the experiment with ACHN renal; greater than 100 µM in the experiment on NCI-H226 lung; greater than 100 µM with MALME-3M melanoma; greater than 100 µM in the experiment on HT29 colon. Further, the TGI in the experiment with UACC-62 melanoma, in the experiment with OVCAR-4 ovarian, in the experiment with TK-10 renal and in the experiment on UACC-257 melanoma was greater than 100 µM throughout.

As for `CC1(C)OC(=O)N(c2ccccc2)C12C=Cc1cc([N+](=O)[O-])cc([N+](=O)[O-])c1O2` (stereo not given), the TGI in the experiment on RXF 393 renal, in the experiment on NCI/ADR-RES ovarian, in the experiment on ACHN renal, in the experiment with NCI-H226 lung, in the experiment on HT29 colon and in the experiment on UACC-62 melanoma was greater than 100 µM each time. The TGI in the experiment on OVCAR-4 ovarian, in the experiment with TK-10 renal, in the experiment with UACC-257 melanoma and in the experiment with UO-31 renal was greater than 100 µM throughout.

With `CC(C)(C)OC(=O)N[C@H]1CCN(C2CCCCC2)C1=O`, the TGI with NCI/ADR-RES ovarian, with ACHN renal, in the experiment on NCI-H226 lung, with UACC-62 melanoma, in the experiment with TK-10 renal and in the experiment with UO-31 renal was greater than 100 µM throughout.

Regarding `COc1ccc(COCCOCc2nc(C#N)c(N)o2)cc1`, the TGI with RXF 393 renal, in the experiment with NCI/ADR-RES ovarian, with ACHN renal, in the experiment with NCI-H226 lung, with HT29 colon and in the experiment on UACC-62 melanoma was greater than 100 µM in each case. Moreover, the TGI with OVCAR-4 ovarian, in the experiment with TK-10 renal, in the experiment on UACC-257 melanoma and in the experiment on UO-31 renal was greater than 100 µM each time.

Regarding `O=c1c2cc([N+](=O)[O-])cnc2sn1-c1ccc([N+](=O)[O-])cc1`, the TGI is 99.3 µM in the experiment with NCI/ADR-RES ovarian; greater than 100 µM with ACHN renal; greater than 100 µM in the experiment on NCI-H226 lung; 53 µM in the experiment with MALME-3M melanoma; 55.8 µM in the experiment with HT29 colon; greater than 100 µM in the experiment with UACC-62 melanoma. Moreover, the TGI in the experiment on OVCAR-4 ovarian is 85.7 µM; in the experiment with TK-10 renal it was greater than 100 µM; in the experiment with UACC-257 melanoma, greater than 100 µM; with UO-31 renal it was greater than 100 µM.

As to `O=c1[nH]c(Nc2cccc(CC(F)(F)F)c2)nc2nc[nH]c12`, the TGI in the experiment on NCI/ADR-RES ovarian, in the experiment with ACHN renal, in the experiment with NCI-H226 lung, in the experiment on MALME-3M melanoma, in the experiment on HT29 colon and in the experiment with UACC-62 melanoma was greater than 100 µM in each case. Moreover, the TGI in the experiment on OVCAR-4 ovarian, in the experiment with TK-10 renal, in the experiment with UACC-257 melanoma and in the experiment on UO-31 renal was greater than 100 µM throughout.

Regarding `Cc1ccc(C(=O)O)cc1S(=O)(=O)Nn1cnc2ccc(S(=O)(=O)Nc3ccccc3C(=O)O)cc2c1=O`, the TGI with NCI/ADR-RES ovarian, in the experiment on ACHN renal, in the experiment with NCI-H226 lung, in the experiment on MALME-3M melanoma, in the experiment on HT29 colon and with UACC-62 melanoma was greater than 100 µM each time. Besides, the TGI in the experiment with OVCAR-4 ovarian, with TK-10 renal, with UACC-257 melanoma and in the experiment on UO-31 renal was greater than 100 µM in each case.

On to `CCOC(=O)c1cn2c(n1)sc1cccc(C)c12`, for which the TGI with RXF 393 renal, in the experiment on NCI/ADR-RES ovarian, in the experiment with ACHN renal, in the experiment on NCI-H226 lung, with MALME-3M melanoma and in the experiment on UACC-62 melanoma was greater than 100 µM each time. Further, the TGI in the experiment with TK-10 renal, in the experiment with UACC-257 melanoma and in the experiment on UO-31 renal was greater than 100 µM in each case.
